Assay results reported in patent US5747500A, “Antiviral 2, 4-pyrimidinedione derivatives” (priority 1993, dated 1998).
Converted amounts (≈) assume the structure as drawn.

Legend:
HIV = test: inhibition of HIV-induced cytopathic effect in MT-4 cells (MTT method); format: cell-based; details: for EC50: Human immunodeficiency virus 1, MT4, HIV-infected MT-4 cells, 1000 CCID50, 4 or 5 day incubation at 37° C., MTT method, read-out: ED50: Effective concentration for the inhibition of the proliferation of HIV by 50%; for S.I.: Selectivity index (CD50/ED50): ratio CD50/ED50, MT-4 cells
Description: The anti-HIV assays were based on the inhibition of the virus-induced cytopathic effect in MT-4 cells as described in J. Virol. Methods, 16, 171 (1987). Briefly, MT-4 cells were suspended in culture medium at 2.5×10^5 cells/ml and infected with 1000 CCID50 (50% cell culture infective dose) of HIV. Immediately, after virus infection, 100 μl of the cell suspension was brought into each well of a flat-bottomedmicrotiter tray containing various concentrations of the test compounds. After a 4 or 5 day incubation at 37° C., the number of viable cells was determined by the 3-(4,5-dimethylthiazol-2-yl)-2,5-diphenyltetrazoliumbromide (MTT) method, as disclosed in J. Virol. Methods, 20, 309 (1988).
ED50 : Effective concentration for the inhibition of the
proliferation of HIV by 50%

[1] = cytotoxicity: viability of mock-infected MT-4 host cells (MTT method); format: cell-based; details: human, mt-4 cells, read-out: CD50: Cytotoxic concentration that causes death of cells by 50%
Description: The cytotoxicity of the compounds of the present invention was assessed in parallel with their antiviral activity. It was based on the viability of mock-infected host cells as determined by the MTT methods (se J. Virol. Methods, 20, 309 (1988)).
CD50 : Cytotoxic concentration that causes death of cells by 50%

| SMILES | EC50 (HIV) [µg/mL] | S.I.: Selectivity index (CD50/ED50) (HIV) | CC50 [1] [µg/mL] |
| --- | --- | --- | --- |
| CCc1c(Sc2cc(C)cc(C)c2)n(CC#Cc2ccccc2)c(=O)[nH]c1=O [Example 26, 1-(3-phenyl-2-propynyl)-5-ethyl-6-(3,5-dimethylphenylthio)-2,4-pyrimidinedione] | < 0.009 | > 547 | 4.93 (≈ 12.6 µM) |
| C=CCn1c(Sc2cc(C)cc(C)c2)c(CC)c(=O)[nH]c1=O [Example 18, 1-allyl-5-ethyl-6-(3,5-dimethylphenylthio)-2,4-pyrimidinedione] | < 0.032 | > 121 | 3.9 (≈ 12.3 µM) |
| CCc1c(Sc2ccccc2)n(C/C=C/c2ccccc2)c(=O)[nH]c1=O [Example 14] | < 0.032 | > 180 | 5.77 (≈ 15.8 µM) |
| CCc1c(Oc2cc(C)cc(C)c2)n(C/C=C/CO)c(=O)[nH]c1=O [Example 83, 1-(4-hydroxy-trans-2-butenyl)-5-ethyl-6-(3,5-dimethylphenoxy)-2,4-pyrimidinedione] | < 0.81 | > 31 | 25.5 (≈ 77.2 µM) |
| C=CCn1c(Oc2cc(C)cc(C)c2)c(CC)c(=O)[nH]c1=O [Example 57, 1-allyl-5-ethyl-6-(3,5-dimethylphenoxy)-2,4-pyrimidinedione] | < 0.32 | > 132 | 42.4 (≈ 141 µM) |
| CCc1c(Sc2cc(C)cc(C)c2)n(C/C=C/c2ccccc2)c(=O)[nH]c1=O [Example 20] | < 0.009 | > 578 | 5.21 (≈ 13.3 µM) |
| C=CCn1c(Sc2ccccc2)c(CC)c(=O)[nH]c1=O [Example 12, 1-allyl-5-ethyl-6-phenylthio-2,4-pyrimidinedione] | < 0.32 | > 54 | 17.5 (≈ 60.6 µM) |
| Cc1cc(C)cc(Oc2c(C(C)C)c(=O)[nH]c(=O)n2C/C=C/c2ccccc2)c1 [Example 65] | < 0.009 | > 893 | 8.04 (≈ 20.6 µM) |
| CC#CCn1c(Sc2cc(C)cc(C)c2)c(C(C)C)c(=O)[nH]c1=O [Example 31, 1-(2-butynyl)-5-isopropyl-6-(3,5-dimethylphenylthio)-2,4-pyrimidinedione] | < 0.32 | > 52 | 16.9 (≈ 49.5 µM) |
| CCc1c(C(=O)c2cc(C)cc(C)c2)n(C/C=C/COC(C)=O)c(=O)[nH]c1=O [Example 80, 1-(4-acetoxy-trans-2-butenyl)-5-ethyl-6-(3,5-dimethylbenzoyl)-2,4-pyrimidinedione] | < 0.033 | > 1,345 | 44.4 (≈ 115 µM) |
| CCc1c(Sc2ccccc2)n(CC=C(C)C)c(=O)[nH]c1=O [Example 15, 1-(3-methyl-2-butenyl)-5-ethyl-6-phenylthio-2,4-pyrimidinedione] | 0.36 (≈ 1.14 µM) | 31 | 11.3 (≈ 35.6 µM) |
| CC#CCn1c(Cc2cc(C)cc(C)c2)c(CC)c(=O)[nH]c1=O [Example 39, 1-(2-butynyl)-5-ethyl-6-(3,5-dimethylbenzyl)-2,4-pyrimidinedione] | < 0.049 | > 176 | 8.65 (≈ 27.9 µM) |
| C#CCn1c(Cc2cc(C)cc(C)c2)c(CC)c(=O)[nH]c1=O [Example 38, 1-propargyl-5-ethyl-6-(3,5-dimethylbenzyl)-2,4-pyrimidinedione] | < 0.32 | > 75 | 24.1 (≈ 81.5 µM) |
